Activity and GI data for one molecule are collected here from ChEMBL document CHEMBL3272010, “Antimycotic imidazoles. 3. Synthesis and antimycotic properties of 1-[2-(aryloxyalkyl)-2-phenylethyl]-1H-imidazoles” (1977).

The test system of test [1] is Candida albicans. As to the kind of experiment: Antifungal activity against Candida albicans infected in guinea pig at 10 mg/kg, po qd. It counts as functional, organism-based. Set-up: dose 10 mg/kg.
In test [2] the test system is Candida albicans. Description: Antifungal activity against Candida albicans assessed as lowest dose required to total inhibition of fungal growth. The class given is functional.
In the next test the test system is Saprolegnia. Description: Antifungal activity against Saprolegnia species assessed as lowest dose required to total inhibition of fungal growth. The class given is functional.
In another test the test system is Sporothrix schenckii. As to the kind of experiment: Antifungal activity against Sporothrix schenckii assessed as lowest dose required to total inhibition of fungal growth. The class given is functional.
For the next test, the system named is Streptococcus pyogenes. As to the kind of experiment: Antibaterial activity against Streptococcus pyogenes assessed as lowest dose required to total inhibition of bacterial growth. It counts as functional.
The next test has as its system Mucor. As to the kind of experiment: Antifungal activity against Mucor species assessed as lowest dose required to total inhibition of fungal growth. It counts as functional.
The next test concerns Cryptococcus neoformans. Description: Antifungal activity against Cryptococcus neoformans assessed as lowest dose required to total inhibition of fungal growth. It counts as functional.
The next test deals with Microsporum canis. As to the kind of experiment: Antifungal activity against Microsporum canis assessed as lowest dose required to total inhibition of fungal growth. The class given is functional.
A further test concerns Aspergillus fumigatus. Description: Antifungal activity against Aspergillus fumigatus assessed as lowest dose required to total inhibition of fungal growth. It counts as functional.
The test system of another test is Phialophora verrucosa. As to the kind of experiment: Antifungal activity against Phialophora verrucosa assessed as lowest dose required to total inhibition of fungal growth. It counts as functional.
The subject of test [3] is Trichophyton mentagrophytes. Description: Antifungal activity against Trichophyton mentagrophytes assessed as lowest dose required to total inhibition of fungal growth. The class given is functional.
Test [4] concerns Staphylococcus haemolyticus. Description: Antibaterial activity against Staphylococcus haemolyticus assessed as lowest dose required to total inhibition of bacterial growth. It counts as functional.
Test [5] deals with Erysipelothrix rhusiopathiae. Description: Antibaterial activity against Erysipelothrix insidiosa assessed as lowest dose required to total inhibition of bacterial growth. It counts as functional.
In another test the test system is Trichophyton rubrum. Description: Antifungal activity against Trichophyton rubrum assessed as lowest dose required to total inhibition of fungal growth. The class given is functional.
Another test relates to Candida tropicalis. As to the kind of experiment: Antifungal activity against Candida tropicalis assessed as lowest dose required to total inhibition of fungal growth. It counts as functional.

The source made the active and inactive calls. No cut-off for these calls is given here. A value given as a limit tells only on which side of the number the result lay.

For the molecule `Clc1ccc(C(CCCOc2ccc(Br)cc2)Cn2ccnc2)c(Cl)c1.O=C(O)C(=O)O` (stereo not given), in the test with Candida albicans [1], the outcome was inactive. Moreover, the GI in the test with Candida albicans [2] is greater than 100 µg/mL; in the test on Saprolegnia it was 100 µg/mL; in the test with Sporothrix schenckii it was 100 µg/mL; in the test on Streptococcus pyogenes, less than 1 µg/mL; in the test with Mucor it was greater than 100 µg/mL; in the test with Cryptococcus neoformans, 10 µg/mL. Moreover, the GI in the test with Microsporum canis is 100 µg/mL; in the test on Aspergillus fumigatus it was greater than 100 µg/mL; with Phialophora verrucosa, 100 µg/mL; in test [3], less than 1 µg/mL; in test [4] it was 10 µg/mL; in test [5], less than 1 µg/mL. The GI in the test with Trichophyton rubrum was 10 µg/mL; in the test on Candida tropicalis it was greater than 100 µg/mL.
